Earlier results as cited in US9370164B2, “Breeding, production, processing and use of specialty Cannabis” (Biotech Institute LLC, priority 2013, dated 2016).
Like-named read-outs stand apart in the source and are kept apart here.

How the values were obtained:
[1] = for Pharmacological Action: Analgesic / Pharmacological Action: Anti-spasmodic: indications: MS; for Pharmacological Action: Analgesic: Post-operative pain, Migraine, Neuropathic pain, Sciatica; for Pharmacological Action: Anti-inflammatory: indications: Pain, Chron's, Arthritis; for Pharmacological Action: Anti-inflammatory / Pharmacological Action: Immunosuppressive / Pharmacological Action: Neuroprotective: MS; for Pharmacological Action: Anti-emetic: indication: CIE; for Pharmacological Action: Antidepressant: indication: Depression; for Pharmacological Action: Intestinal Anti-prokinetic: indication: Diarrhea; for Pharmacological Action: Anti-epileptic: indication: Epilepsy; for Pharmacological Action: Vasorelaxant: indication: Glaucoma; for Pharmacological Action: Sedative: indication: Sleep disorders; for Pharmacological Action: Immunosuppressive: indications: Allergies, RA, IBS; for Pharmacological Action: Anti-spasmodic: Spinal cord injury, Cerebral palsy; for Pharmacological Action: Anxiolytic: indications: Panic Disorder, Social Anxiety Disorder, Generalized Anxiety Disorder, PTSD; for Pharmacological Action: Neuroprotective: indications: Parkinson's, Alzheimer's, Stroke; for Pharmacological Action: Muscle relaxant: indication: MS; for Pharmacological Action: Bronchodialator: indications: Asthma, Sleep-related breathing disorders
[2] = for Proposed mechanism, Analgesic: post-operative pain

Structure (SMILES) | Pharmacological Action: Analgesic [1] | Pharmacological Action: Anti-inflammatory [1] | Pharmacological Action: Antidepressant [1] | Pharmacological Action: Anti-epileptic [1] | Pharmacological Action: Sedative [1] | Pharmacological Action: Anxiolytic [1] | Proposed mechanism, Anti-inflammatory [2] | further results
CCCCCc1cc(O)c2c(c1)OC(C)(CCC=C(C)C)C=C2 (stereo not drawn) [CBC] | ✓ | ✓ | – | – | – | – | – | –
C=C(C)[C@@H]1CCC(C)=C[C@H]1c1c(O)cc(CCCCC)cc1O [CBD] | ✓ | ✓ | ✓ | ✓ | ✓ | ✓ | – | Pharmacological Action: Anti-emetic [1]: ✓; Pharmacological Action: Intestinal Anti-prokinetic [1]: ✓; Pharmacological Action: Vasorelaxant [1]: ✓; Pharmacological Action: Immunosuppressive [1]: ✓; Pharmacological Action: Anti-spasmodic [1]: ✓; Pharmacological Action: Neuroprotective [1]: ✓; Proposed mechanism, Analgesic [2]: (+)TRPA1; Proposed mechanism, Anti-epileptic [2]: (+)5HT1A; Proposed mechanism, Anti-psychotic ([2]; Anti-psychotic): (+)TRPV1; Proposed mechanism, Anxiolytic ([2]; panic disorder): (+)5HT1A; Proposed mechanism, Anxiolytic ([2]; social anxiety disorder): (+)CB1; Proposed mechanism, Intestinal Anti-prokinetic ([2]; Intestinal Anti-prokinetic): (−)Ca1; Proposed mechanism, Vasorelaxant [2]: (+)PPARg
CCCCCc1cc(O)c(C/C=C(\C)CCC=C(C)C)c(O)c1 [CBG] | ✓ | – | ✓ | ✓ | – | ✓ | – | Pharmacological Action: Muscle relaxant [1]: ✓; Pharmacological Action: Anti-spasmodic [1]: ✓; Proposed mechanism, Analgesic [2]: (+)TRPA1; Proposed mechanism, Anti-proliferative [2]: (−)TRPM8; Proposed mechanism, Antidepressant ([2]; Antidepressant): (−)5HT1A
CCCCCc1cc(O)c2c(c1)OC(C)(C)c1ccc(C)cc1-2 [CBN] | ✓ | – | – | – | ✓ | – | – | –
C=C(C)[C@H]1CC=C(C)CC1 [Limonene] | – | – | ✓ | – | – | ✓ | – | –
C=CC(C)(O)CCC=C(C)C (stereo not drawn) [Linalool] | ✓ | – | – | ✓ | ✓ | ✓ | – | Proposed mechanism, Anti-epileptic [2]: anti-Glu
CCCc1cc(O)c2c(c1)OC(C)(C)[C@@H]1CCC(C)=C[C@@H]21 [THCV] | – | – | – | ✓ | – | – | – | Proposed mechanism, Anti-epileptic [2]: (−)CB1
CCCCCc1cc(O)c2c(c1)OC(C)(C)[C@@H]1CCC(C)=C[C@@H]21 [THC] | ✓ | ✓ | ✓ | ✓ | ✓ | ✓ | (+)PPARg | Pharmacological Action: Anti-emetic [1]: ✓; Pharmacological Action: Intestinal Anti-prokinetic [1]: ✓; Pharmacological Action: Vasorelaxant [1]: ✓; Pharmacological Action: Muscle relaxant [1]: ✓; Pharmacological Action: Immunosuppressive [1]: ✓; Pharmacological Action: Appetite Stimulant ([1]; indications: Anorexia, Cachexia, AIDS wasting): ✓; Pharmacological Action: Bronchodialator [1]: ✓; Pharmacological Action: Anti-spasmodic [1]: ✓; Pharmacological Action: Neuroprotective [1]: ✓; Proposed mechanism, Anti-proliferative [2]: (−)TRPM8; Proposed mechanism, Appetite Stimulant ([2]; Appetite Stimulant): (+)PPARg; Proposed mechanism, Vasorelaxant [2]: (+)PPARg
CC1=CCC2CC1C2(C)C (stereo not drawn) [a-pinene] | – | ✓ | – | – | – | – | PGE1 | Pharmacological Action: Bronchodialator [1]: ✓
C=C1CC/C=C(\C)CC[C@@H]2[C@@H]1CC2(C)C [b-caryophyl.] | – | ✓ | – | – | – | – | PGE1 | –
C=CC(=C)CCC=C(C)C [b-myrcene] | ✓ | ✓ | – | – | ✓ | – | PGE2 | –
